{"source": "patent US7732487B2", "about": "“Method for treating a disease or condition responsive to opening of C1C-2 channel” (priority 2001, dated 2010)", "key": {"[1]": {"test_system": "male Wistar rats", "assay": "Antipneumonedema effect, ammonium sulfate induced, in rats", "assay_type": "in vivo, rat", "procedure": "Test substance 1 of 0.1 or 0.01 mg/kg in 5 mL/kg of vehicle was subcutaneously administered to male Wistar rats (7 weeks old, weight: 200-250 g). The control group received the same amount of the vehicle (physiological Saline). Thirty minutes after the administration, ammonium sulfate […] was administered to the abdominal cavity of the rats. The survival rate at 30 minutes after the administration of ammonium sulfate was calculated. Animals that had survived until 30 minutes after the administration of ammonium sulfate were killed under chloroform, and their lungs were removed to measure the weights. Regarding animals that had been dead by 30 minutes after the administration of ammonium sulfate, their lungs were removed immediately after their death to measure the weights. The lung-weight of the respective groups was compared to the lung-weight of the normal group, which received no ammonium sulfate. Based on the lung-weight measurements, the inhibitory rate of lung-weight increase of the group receiving test substance 1 as compared to that of the control group was calculated."}, "[2]": {"test_system": "male Wistar rats", "assay": "Indomethacin induced ulcer model", "assay_type": "in vivo, rat", "conditions": "2 μg/kg oral", "procedure": "(§1) Effects on acute ulcer was determined by means of water-immersion restraint stress induced ulcer model and indomethacin induced ulcer model.\n(§2) Test substance 1 was orally administered to male Wistar rats (weight: 180-210 g) that had been fasted for 24 hours. In the water-immersion restraint stress induced ulcer model, 10 minutes after the oral administration of test substance 1, the rats were bound in a stress cage and immersed in water at 23° C. up to the level of their chest xiphisternums. Six hours after the immersion, the animals were killed by cervical dislocation. In the indomethacin induced ulcer model, immediately after the oral administration of test substance 1 or 2, indomethacin 10 mg/kg was orally administered. Five hours after the administration, the animals were killed by cervical dislocation. The stomachs removed from the animals were fixed with 1% formalin and then dissected along the greater curvatures. The major axis (mm) of each ulcer formed in the stomach was measured. The major axes of the ulcers in each animal were totaled, which were expressed as ulcer coefficients. Based on the ulcer coefficients of the control group and those of the groups receiving test substances, the ulcer inhibitory rates were calculated."}, "[3]": {"test_system": "ddY male mice", "assay": "Antianoxia effect: duration of gasping after beheading in mice", "assay_type": "in vivo, mouse", "conditions": "0.3 mg/kg subcutaneous, 30 minutes before beheading, Mean ± S.D.", "procedure": "Test substance 1 of 0.3 mg/kg in 10 mL/kg of vehicle was subcutaneously administered to ddY male mice (5 weeks old, weight: 27-30 g). The control group received the vehicle. Thirty minutes after the administration, the mice were beheaded with guillotine. Duration of gasping shown after beheading was measured."}, "[4]": {"test_system": "male white rabbit", "assay": "Amount of lacrimal fluid and chloride ion concentration in lacrimal fluid in rabbit", "assay_type": "in vivo", "conditions": "0.001% eye drop, 30 μL/eye, two hours after instillation, Mean ± S.E.", "procedure": "An eye drop composition comprising 0.001% of the test substance 1 was instilled to male white rabbit in the amount of 30 μL/eye. The control group received the same amount of eye drop vehicle. […] Then the amount of lacrimal fluid was measured from the length of wetting area on the paper filter with the scale on it. […] The collected lacrimal fluid was diluted five fold with distilled water and chloride ion concentration in the lacrimal fluid was measured with a chloride counter (CL-7, Hiranuma Sangyo Co. Ltd., Japan). Student's t-test and Wilcoxon's test were used in comparing the control group and the group receiving test substance 1. P values less than 0.05 were considered to be statistically significant."}, "[5]": {"test_system": "male Wistar rats", "assay": "Water-immersion restraint stress induced ulcer model", "assay_type": "in vivo, rat", "conditions": "for Ulcer Coefficient: Mean ± S.E.", "procedure": "as §1, §2"}, "[6]": {"test_system": "male Wistar rats", "assay": "Amount of intestinal fluid and chloride ion concentration in intestinal fluid in rat", "assay_type": "in vivo", "conditions": "30 minutes after administration, Mean ± S.E.", "procedure": "Test substance 1: 13,14-dihydro-15-keto-16,16-difluoro-prostaglandin E1, which is a ClC-2 channel opener was used. The test substance 1 of 10 or 100 μg/kg in 5 mL/kg of the vehicle was orally administered to male Wistar rats (six weeks old, weight: 180-210 g) that had been fasted for at least 16 hours. The control group received the same volume of the vehicle (0.5% ethanol and 0.01% polysorbate 80 in distilled water). Thirty minutes after the administration, the animals underwent laparotomy under ether anesthesia. The first portion of the duodenum and end portion of the ileum were ligated respectively and the bowel was removed. The intestinal fluid of each animal was collected from the removed bowel and the amount was determined. After the intestinal fluid was centrifuged by 10,000×g for 5 minutes, its supernatant was collected. The chloride ion concentration in the supernatant was measured with a chloride counter (CL-7, Hiranuma Sangyo Co., Ltd.). Dunnett's test was used in comparing the control group and the test groups receiving test substance 1 in each dose. P values less than 0.05 were considered to be statistically significant."}}, "data": [{"smiles": "CCCCC(F)(F)C(=O)CC[C@H]1[C@H](O)CC(=O)[C@@H]1CCCCCCC(=O)O", "note": "[Test Sub. 1, 13,14-dihydro-15-keto-16,16-difluoro-prostaglandin E1]", "values": [{"measurement": "Inhibitory Rate of Lung-weight Increase", "setting": "[1]; 0.01 mg/kg subcutaneous, compared to control group", "result": 47, "unit": "%"}, {"measurement": "Surviving Rate", "setting": "[1]; 0.1 mg/kg subcutaneous, 30 minutes after ammonium sulfate", "result": 60, "unit": "%"}, {"measurement": "Ulcer Inhibitory Rate", "setting": "[2]", "result": 44, "unit": "%"}, {"measurement": "Ulcer Coefficient", "setting": "[2]; Mean ± S.E.", "result": "27.9 ± 5.1"}, {"measurement": "Duration of Gasping", "setting": "[3]", "result": "24.1 ± 1.9"}, {"measurement": "Chloride Ion Concentration in Lacrimal Fluid", "setting": "[4]", "result": "152.9 ± 7.7^(##) mEq/L"}, {"measurement": "Amount of Lacrimal Fluid", "setting": "[4]; Schirmer's Paper", "result": "11.5 ± 0.7", "unit": "mL"}, {"measurement": "Ulcer Inhibitory Rate", "setting": "[5]; 30 μg/kg oral", "result": 54.3, "unit": "%"}, {"measurement": "Ulcer Coefficient", "setting": "[5]; 30 μg/kg oral", "result": "13.4 ± 2.0"}, {"measurement": "Ulcer Inhibitory Rate", "setting": "[5]; 100 μg/kg oral", "result": 85.3, "unit": "%"}, {"measurement": "Ulcer Coefficient", "setting": "[5]; 100 μg/kg oral", "result": "4.3 ± 1.9"}, {"measurement": "Amount of Intestinal Fluid", "setting": "[6]; 10 μg/kg oral", "result": "3.3 ± 0.3", "unit": "mL"}, {"measurement": "Chloride Ion Concentration in Intestinal Fluid", "setting": "[6]; 10 μg/kg oral", "result": "110.1 ± 5.6", "unit": "mEq/L"}, {"measurement": "Amount of Intestinal Fluid", "setting": "[6]; 100 μg/kg oral", "result": "5.3 ± 0.2", "unit": "mL"}, {"measurement": "Chloride Ion Concentration in Intestinal Fluid", "setting": "[6]; 100 μg/kg oral", "result": "126.6 ± 2.4", "unit": "mEq/L"}]}]}
